Data on eight compounds can be found in patent publication US4734411A, “Pyrrolizidine compounds, salts thereof, process for the preparation of same and pharmaceutical agents comprising same” (Sanwa Kagaku Kenkyusho Co., Ltd., priority 1985, dated 1988).

One series concerns pupil diameter. Description: Influence on pupil diameter of mice (mydriatic effect). As to conditions: oral, 30 minutes. Format: in vivo, ICR mice, male. How it is done:
(Influence on pupil diameter of mice)
Some pyrrolizidine compounds according to the invention were tested to evaluate their influence on the pupil diameter of mice, in comparison with Pirenzepine and Atropine as controls.
The animals were deprived of food for 18 hours prior to the test. After 30 minutes from oral administration of the compounds, the pupil width was measured by a micrometer. Results are shown in following Table 3 in terms of ratio of pupil diameter and mydriatic effect.

The subject of series [1] is stress induced gastric ulcer. Put plainly: Stress ulcer in rats (restraint and water immersion). The series is classed as in vivo, Wistar rats, male. As to conditions: for Inhibition (%): an hour before the restraint; for ED50: Rattus norvegicus. On the procedure:
Some pyrrolizidine compounds according to the invention were tested to evaluate their anti-ulcer activity in comparison with Pirenzepine and Cimetidine as controls, in accordance with the procedure proposed by Takagi et al.["Japan. J. Pharmacol." Vol. 18, page 9 (1968)].
Wistar rats of male sex were used, each having the body weight of 138 to 207 g. The animals were deprived of food for 24 hours prior to the test. They were immobilized in a restraint cage and immersed for 7 hours to the height of the xiphoid in a water bath kept at 23±1° C. After inflation with 10 ml of 1% formalin, the isolated stomach was opened along the greater curvature. The ulcer index was determined as the sum of the length (mm) of each erosion per rat. The compounds were administered orally an hour before the restraint.

The subject of series [2] is aspirin induced gastric ulcer. Description: Aspirin ulcer in rats (pylorus ligated). Format: in vivo, Sprague-Dawley rats, male. As to conditions: for Inhibition (%): an hour before pylorus ligation and aspirin (100 mg/kg); for ED50: Rattus norvegicus. How it is done: Some pyrrolizidine compounds according to the invention were tested to evaluate their anti-ulcer activity on Aspirin ulcer, in comparison with Pirenzepine and Cimetidine as controls, in accordance with the procedure proposed by Okabe et al. ["Japan. J. Pharmacol." Vol. 24, page 363 (1974)].
Sprague-Dawley rats of male sex were used, each having the body weight of 146 to 210 g. The animals were deprived of food for 24 hours prior to the test. After an hour from oral administration of the compounds, the pylorus was ligated under anesthesia by ethyl ether and aspirin (100 mg/kg) suspended with 5% gum arabic was orally administered. After 7 hours from the administration, the stomach was isolated and inflated with 10 ml of 1% formalin. The ulcer index was determined as the sum of the length (mm) of each erosion per rat.
Results are shown in following Table 2 in terms of percent inhibition of anti-ulcer activity with respect to concentrations of 10 to 100 mg/kg.

The conditions of series [3]: in words, related arts; cited from earlier work.
The nature of another series: Acute toxicity in mice. Format: in vivo. Particulars: mouse, in vivo; oral, 7 days, 5 animals, Litchfield-Wilcoxon's method. On the procedure: (§1) Some pyrrolizidine compounds according to the invention were tested to evaluate their acute toxicity in mice.
(§2) ICR mice of male sex were used, each having the body weight of 24.8 to 30.0 g. The compounds were orally administered and general condition, behavior and mortality were observed daily throughout the experimental period of time (7 days). At end of the period, the surviving animals were sacrificed. Dead animals were sacrificed at the time when they were recognized to be dead. LD50 value was calculated in accordance with Litchfield-Wilcoxon's method.

A further series concerns ICR mice. Description: Acute toxicity in mice. The series is classed as in vivo. Particulars: oral, 7 days, of 5 animals; numeral in parenthesis. On the procedure:
as §1, §2

Setting [4] is: oral, concentration of inhibitor which gives 50% inhibition, read-out: ED50.
The mark [5] stands for this setting: 30 mg/kg, Atropine (1 mg/kg) = 1.00.

Read-outs that look alike come from different tables or passages of the source. A value given as a limit tells only on which side of the number the result lay.

Consider `CN1[C@@H]2CC[C@H]1C[C@@H](OC(=O)C(CO)c1ccccc1)C2` (stereo partly drawn) [Atropine, reference compound], for which, in the series on pupil diameter (1 mg/kg), the “Rate of pupil dia. (pre. = 1)” value is on record as 4.7 and the Ratio of mydriasis is recorded as 1.00.
As to `CN/C(=N/CCSCc1nc[nH]c1C)NC#N` [Cimetidine, reference compound], the “Inhibition (%)” value turned out to be 16.9% in series [1] (10 mg/kg, oral); 81.5% in series [1] (100 mg/kg, oral); 12.2% in series [2] (10 mg/kg, oral); 69.6% in series [2] (100 mg/kg, oral). Further, the ED50 in series [1] (po) was found to be 33.8 mg/kg; in series [2] (po) it was 50.4 mg/kg. The side effects entry in series [3] is “side effects of forming a perforation in ulcer and strengthening a delayed hypersensitive reaction”.
Consider `c1ccc2c(c1)Sc1ccccc1N2CC12CCCN1CCC2` [Example 1, 10-(7a-Pyrrolizidinylmethyl)phenothiazine], for which the “Inhibition (%)” value in series [1] (10 mg/kg, oral) stood at 55.4%; in series [1] (100 mg/kg, oral), 92.5%; in series [2] (10 mg/kg, oral), 58.3%; in series [2] (100 mg/kg, oral) it was 63.5%. Further, the ED50 in series [1] (setting [4]) and in series [2] (setting [4]) was less than 10 mg/kg each time. In the series with pupil diameter (30 mg/kg), the “Rate of pupil dia. (pre. = 1)” value was 2.7. In addition, the Ratio of mydriasis in the series with pupil diameter (setting [5]) came to 0.57. Also, the LD50 at 168 h in the series “Acute toxicity in mice” is more than 1000 mg/kg.
As to `c1ccc2c(c1)Sc1ccccc1N2CCC12CCCN1CCC2` [Example 2, 10-[2-(7a-Pyrrolizidinyl)ethyl)phenothiazine], the “Inhibition (%)” value in series [1] (10 mg/kg, oral) is on record as 38.6%; in series [1] (100 mg/kg, oral), 87.0%; in series [2] (10 mg/kg, oral) it was 53.3%; in series [2] (100 mg/kg, oral) it was 73.2%. In addition, the ED50 in series [1] (setting [4]) is 16.4 mg/kg; in series [2] (setting [4]), less than 10 mg/kg. In the series with pupil diameter (30 mg/kg), the “Rate of pupil dia. (pre. = 1)” value was 4.6. In addition, the Ratio of mydriasis in the series with pupil diameter (setting [5]) is listed as 0.98. This compound came in with a 50% lethal dose (LD50) at 168 h in “Acute toxicity in mice” of less than 1000 mg/kg. Moreover, the “number of dead animals” value with ICR mice was determined as 4.
In the case of `CN(C)S(=O)(=O)c1ccc2c(c1)N(CC13CCCN1CCC3)c1ccccc1S2` [Example 3, 2-(N,N-Dimethylsulfamoyl)-10-(7a-pyrrolizidinylmethyl)phenothiazine], the “Inhibition (%)” value is listed as 49.4% in series [1] (10 mg/kg, oral); 65.6% in series [1] (100 mg/kg, oral); 19.7% in series [2] (10 mg/kg, oral); 36.5% in series [2] (100 mg/kg, oral). Further, the figures for the ED50 in series [1] (setting [4]) and in series [2] (setting [4]) were 11.8 mg/kg and more than 100 mg/kg, respectively. The “Rate of pupil dia. (pre. = 1)” value with pupil diameter (30 mg/kg) is given as 1.1. The Ratio of mydriasis in the series with pupil diameter (setting [5]) is recorded as 0.23. This compound also displayed an LD50 at 168 h in “Acute toxicity in mice” of more than 1000 mg/kg.
Consider `C[Si](C)(C)c1cccc2c1N(CC13CCCN1CCC3)c1ccccc1S2` [Example 4, 10-(7a-Pyrrolizidinylmethyl)-1-trimethylsilylphenothiazine], for which the “Inhibition (%)” value in series [2] (10 mg/kg, oral) was 17.7%; in series [2] (100 mg/kg, oral) it was 65.6%. The same compound yielded a 50% effective dose (ED50) in series [2] (po) of 60.4 mg/kg. Besides, the LD50 at 168 h in “Acute toxicity in mice” was more than 1000 mg/kg.
In the case of `O=C1Nc2cccnc2N(C(=O)C23CCCN2CCC3)c2ccccc21` [Example 5, 5,11-Dihydro-11-(pyrrolizidine-7a-carbonyl)-6H-pyrido(2,3-b)(1,4)-benzodiazepin-6-one], the “Inhibition (%)” value is 31.7% in series [1] (10 mg/kg, oral); 80.2% in series [1] (100 mg/kg, oral); 23.6% in series [2] (10 mg/kg, oral); 82.2% in series [2] (100 mg/kg, oral). Besides, the median effective dose (ED50) in series [1] (setting [4]) stood at 23.6 mg/kg; in series [2] (setting [4]), 27.9 mg/kg. Also, the “Rate of pupil dia. (pre. = 1)” value with pupil diameter (30 mg/kg) is reported as 0.9. Moreover, in the series on pupil diameter (setting [5]), the Ratio of mydriasis is reported as 0.19. In the series “Acute toxicity in mice”, this compound registered an LD50 at 168 h of more than 1000 mg/kg. Also, the “number of dead animals” value in the series with ICR mice worked out at 1.
For `CN1CCN(CC(=O)N2c3ccccc3C(=O)Nc3cccnc32)CC1` [Pirenzepine, reference compound], the “Inhibition (%)” value in series [1] (10 mg/kg, oral) amounted to 7.2%; in series [1] (100 mg/kg, oral), 98.8%; in series [2] (10 mg/kg, oral), 22.1%; in series [2] (100 mg/kg, oral), 90.5%. Moreover, the 50% effective dose (ED50) in series [1] (setting [4]) came to 26.3 mg/kg; in series [2] (setting [4]), 23.7 mg/kg. Besides, the “Rate of pupil dia. (pre. = 1)” value in the series on pupil diameter (30 mg/kg) was 3.4. Further, in the series with pupil diameter (setting [5]), the Ratio of mydriasis turned out to be 0.72. Also, the side effects result in series [3] is “side reactions due to supression of muscarinic receptor, although those are somewhat weak”.

The term ED50 denotes the dose at which the effect has come halfway, by size or by number of responders. The LD50 is the dose expected to kill half of the subjects tested.
